Laboratory results published in patent publication US9340590B2 (priority 2011, dated 2016).
Read-outs that look alike come from different tables or passages of the source. Positions of bridges follow the written chain, without caps; N, C: chain ends. Residues, ends and D or L forms follow the SMILES beside them.

Legend:
Experiment in all cases: cell-based
hNav1.7 = hNav1.7 (Homo sapiens, UniProt Q15858); assay type: cell-based
hNav1.5 = hNav1.5 (Homo sapiens, UniProt Q14524)
hNav1.3 = hNav1.3 (Homo sapiens, UniProt Q9NY46); conditions: IonWorks Quattro, read-out: IWQ Use Nav1.3
[1] = IonWorks Quattro, use-dependent block, hNav1.7, read-out: IWQ Use Nav1.7
[2] = IonWorks Quattro, use-dependent block, hNav1.5, read-out: IWQ Use Nav1.5
[3] = IonWorks Quattro, use-dependent protocol, hNav1.7, read-out: IWQ Use Nav1.7
[4] = IonWorks Quattro, use-dependent protocol, hNav1.5, read-out: IWQ Use Nav1.5
[5] = use-dependent protocol, hNav1.3

Sequence of hNav1.5 (Q14524 whole entry, looked up): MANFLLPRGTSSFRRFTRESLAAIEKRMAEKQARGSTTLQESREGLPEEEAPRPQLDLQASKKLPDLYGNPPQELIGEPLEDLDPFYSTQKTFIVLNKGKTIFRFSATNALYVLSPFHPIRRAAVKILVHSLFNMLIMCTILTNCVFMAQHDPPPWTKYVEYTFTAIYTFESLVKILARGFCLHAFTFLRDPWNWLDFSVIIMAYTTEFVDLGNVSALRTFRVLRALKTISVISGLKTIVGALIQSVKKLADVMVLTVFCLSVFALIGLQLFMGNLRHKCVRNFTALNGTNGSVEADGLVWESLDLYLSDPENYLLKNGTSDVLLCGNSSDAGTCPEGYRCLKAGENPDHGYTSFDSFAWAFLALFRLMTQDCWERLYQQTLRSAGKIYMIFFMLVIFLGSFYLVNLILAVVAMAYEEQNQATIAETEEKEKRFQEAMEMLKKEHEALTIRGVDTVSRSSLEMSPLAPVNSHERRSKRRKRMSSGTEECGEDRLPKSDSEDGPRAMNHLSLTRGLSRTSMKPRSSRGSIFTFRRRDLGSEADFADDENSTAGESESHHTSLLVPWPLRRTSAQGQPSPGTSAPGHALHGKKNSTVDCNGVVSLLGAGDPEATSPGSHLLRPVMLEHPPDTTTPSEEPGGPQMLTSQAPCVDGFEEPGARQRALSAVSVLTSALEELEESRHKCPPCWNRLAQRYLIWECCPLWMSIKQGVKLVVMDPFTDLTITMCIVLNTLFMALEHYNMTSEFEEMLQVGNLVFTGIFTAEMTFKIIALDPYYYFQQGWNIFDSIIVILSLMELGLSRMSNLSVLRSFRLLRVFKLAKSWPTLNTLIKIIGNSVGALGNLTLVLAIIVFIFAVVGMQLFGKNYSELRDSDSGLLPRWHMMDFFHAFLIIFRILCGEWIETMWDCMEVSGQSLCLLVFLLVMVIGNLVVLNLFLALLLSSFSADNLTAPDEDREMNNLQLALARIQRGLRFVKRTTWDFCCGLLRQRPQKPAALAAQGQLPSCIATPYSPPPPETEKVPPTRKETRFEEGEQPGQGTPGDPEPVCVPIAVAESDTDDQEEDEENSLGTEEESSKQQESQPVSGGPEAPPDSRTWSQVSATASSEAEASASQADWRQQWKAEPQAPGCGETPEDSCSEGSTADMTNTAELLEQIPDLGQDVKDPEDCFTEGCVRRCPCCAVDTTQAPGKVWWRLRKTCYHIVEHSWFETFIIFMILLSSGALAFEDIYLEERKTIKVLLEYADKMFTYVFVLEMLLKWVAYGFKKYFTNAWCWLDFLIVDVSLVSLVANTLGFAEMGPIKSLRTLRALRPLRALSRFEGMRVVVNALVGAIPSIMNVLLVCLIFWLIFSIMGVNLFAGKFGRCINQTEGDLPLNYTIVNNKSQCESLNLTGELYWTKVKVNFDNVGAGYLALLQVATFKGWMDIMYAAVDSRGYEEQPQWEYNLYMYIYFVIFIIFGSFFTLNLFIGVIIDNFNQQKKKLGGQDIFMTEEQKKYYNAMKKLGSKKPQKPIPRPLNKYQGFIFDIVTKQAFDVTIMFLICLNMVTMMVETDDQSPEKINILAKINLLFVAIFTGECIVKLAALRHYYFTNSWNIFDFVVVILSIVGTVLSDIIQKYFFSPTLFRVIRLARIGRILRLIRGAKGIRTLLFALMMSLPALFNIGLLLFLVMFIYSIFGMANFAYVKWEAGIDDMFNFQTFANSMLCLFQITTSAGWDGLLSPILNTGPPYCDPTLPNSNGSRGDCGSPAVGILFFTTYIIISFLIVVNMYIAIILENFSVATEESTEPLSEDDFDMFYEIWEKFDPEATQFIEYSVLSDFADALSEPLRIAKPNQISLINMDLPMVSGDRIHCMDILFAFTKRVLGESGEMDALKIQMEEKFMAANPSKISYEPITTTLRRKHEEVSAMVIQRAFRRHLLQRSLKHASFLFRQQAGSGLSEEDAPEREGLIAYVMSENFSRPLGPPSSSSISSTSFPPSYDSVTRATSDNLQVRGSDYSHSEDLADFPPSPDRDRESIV
Sequence of hNav1.3 (Q9NY46 whole entry, looked up): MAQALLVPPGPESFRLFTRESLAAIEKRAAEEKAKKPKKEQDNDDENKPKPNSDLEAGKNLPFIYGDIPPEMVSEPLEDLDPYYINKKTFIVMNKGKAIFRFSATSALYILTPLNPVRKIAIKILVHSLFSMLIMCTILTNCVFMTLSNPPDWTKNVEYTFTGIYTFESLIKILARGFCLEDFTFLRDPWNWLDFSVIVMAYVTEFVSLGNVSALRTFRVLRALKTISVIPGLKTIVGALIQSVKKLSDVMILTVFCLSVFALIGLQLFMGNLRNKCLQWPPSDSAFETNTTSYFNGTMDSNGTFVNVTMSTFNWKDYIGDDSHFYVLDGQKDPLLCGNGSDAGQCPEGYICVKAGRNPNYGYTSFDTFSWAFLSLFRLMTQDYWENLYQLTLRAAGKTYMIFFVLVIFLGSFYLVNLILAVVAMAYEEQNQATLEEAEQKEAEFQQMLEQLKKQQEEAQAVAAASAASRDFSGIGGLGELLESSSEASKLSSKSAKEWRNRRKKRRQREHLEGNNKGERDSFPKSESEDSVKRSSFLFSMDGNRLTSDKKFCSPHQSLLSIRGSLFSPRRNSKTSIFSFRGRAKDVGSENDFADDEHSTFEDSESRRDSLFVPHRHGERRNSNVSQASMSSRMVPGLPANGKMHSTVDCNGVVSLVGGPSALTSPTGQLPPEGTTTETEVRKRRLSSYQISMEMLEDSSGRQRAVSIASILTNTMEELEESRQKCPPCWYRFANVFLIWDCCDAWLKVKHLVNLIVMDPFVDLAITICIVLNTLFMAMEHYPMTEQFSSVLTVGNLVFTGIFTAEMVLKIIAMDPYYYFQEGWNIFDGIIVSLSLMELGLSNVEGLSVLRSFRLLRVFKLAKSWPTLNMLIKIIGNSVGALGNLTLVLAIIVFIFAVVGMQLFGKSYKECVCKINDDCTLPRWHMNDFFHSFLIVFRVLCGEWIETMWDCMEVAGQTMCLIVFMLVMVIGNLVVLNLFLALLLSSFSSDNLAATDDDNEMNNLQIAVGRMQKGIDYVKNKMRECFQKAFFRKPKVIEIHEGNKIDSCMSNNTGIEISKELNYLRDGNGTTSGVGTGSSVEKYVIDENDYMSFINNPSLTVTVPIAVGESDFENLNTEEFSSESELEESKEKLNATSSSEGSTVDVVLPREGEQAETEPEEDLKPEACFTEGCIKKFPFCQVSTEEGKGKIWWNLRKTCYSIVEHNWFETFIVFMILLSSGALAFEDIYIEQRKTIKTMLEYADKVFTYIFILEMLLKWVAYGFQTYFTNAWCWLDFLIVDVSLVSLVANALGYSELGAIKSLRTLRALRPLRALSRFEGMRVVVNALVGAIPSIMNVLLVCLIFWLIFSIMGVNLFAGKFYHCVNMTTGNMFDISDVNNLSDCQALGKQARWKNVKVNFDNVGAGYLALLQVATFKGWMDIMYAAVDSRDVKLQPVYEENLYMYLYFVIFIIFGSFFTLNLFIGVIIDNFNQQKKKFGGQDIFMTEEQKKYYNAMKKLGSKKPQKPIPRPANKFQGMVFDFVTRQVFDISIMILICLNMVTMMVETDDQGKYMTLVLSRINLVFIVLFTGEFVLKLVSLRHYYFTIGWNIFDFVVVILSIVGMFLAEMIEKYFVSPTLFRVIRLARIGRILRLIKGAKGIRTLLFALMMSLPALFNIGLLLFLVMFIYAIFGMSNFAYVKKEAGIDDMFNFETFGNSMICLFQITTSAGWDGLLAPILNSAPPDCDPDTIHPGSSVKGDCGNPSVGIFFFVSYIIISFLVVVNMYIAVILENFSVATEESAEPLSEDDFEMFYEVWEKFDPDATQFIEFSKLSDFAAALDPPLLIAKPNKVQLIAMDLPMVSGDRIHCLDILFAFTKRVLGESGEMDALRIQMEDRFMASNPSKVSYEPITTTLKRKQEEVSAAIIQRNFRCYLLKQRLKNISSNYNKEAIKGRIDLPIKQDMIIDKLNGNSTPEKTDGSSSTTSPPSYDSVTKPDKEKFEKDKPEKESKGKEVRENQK

| SMILES | IC50 (hNav1.7; [1]) | IC50 (hNav1.5; [2]) | IC50 (hNav1.3; use-dependent block, hNav1.3) | IC50 (hNav1.3; [5]) | other results |
| --- | --- | --- | --- | --- | --- |
| CC[C@H](C)[C@@H]1NC(=O)[C@@H]2CSSC[C@@H]3NC(=O)[C@H](C(C)C)NC(=O)[C@H](CC(C)C)NC(=O)[C@H](CC(N)=O)NC(=O)[C@@H]4CCCN4C(=O)[C@H](CCCNC(=N)N)NC(=O)[C@H](CSSC[C@H](NC(=O)[C@@H](N)CC(=O)O)C(=O)N[C@@H](CC(C)C)C(=O)NCC(=O)N[C@@H](C)C(=O)N[C@@H](CCSC)C(=O)N[C@@H](CCCNC(=N)N)C(=O)N[C@@H](CCCCN)C(=O)N2)NC(=O)[C@H](CSSC[C@@H](C(=O)N[C@@H](CCCCN)C(=O)N[C@@H](Cc2ccc(O)cc2)C(=O)N[C@@H](Cc2c[nH]c4ccccc24)C(=O)N[C@@H](Cc2ccccc2)C(N)=O)NC(=O)[C@H](Cc2c[nH]c4ccccc24)NC(=O)[C@H](CCCCN)NC(=O)[C@H](Cc2c[nH]cn2)NC(=O)[C@H]([C@@H](C)O)NC(=O)[C@H](CCCNC(=N)N)NC(=O)[C@H](CO)NC3=O)NC(=O)[C@H](CCCCN)NC(=O)[C@H](CC(=O)O)NC(=O)[C@H](CC(N)=O)NC(=O)[C@H](CC(=O)O)NC(=O)[C@@H]2CCCN2C1=O [compound 252] (H-DCLGAMRKCIPDNDKCCRPNLVCSRTHKWCKYWF-NH2; disulfide 2-17, 9-23, 16-30) | 230 nM | 5000 nM | 400 nM | – | – |
| CC[C@H](C)[C@@H]1NC(=O)[C@@H]2CSSC[C@@H]3NC(=O)[C@H](C(C)C)NC(=O)[C@H](CC(C)C)NC(=O)[C@H](CC(N)=O)NC(=O)[C@@H]4CCCN4C(=O)[C@H](CCCNC(=N)N)NC(=O)[C@H](CSSC[C@H](NC(=O)[C@@H](N)CC(=O)O)C(=O)N[C@@H](CC(C)C)C(=O)NCC(=O)N[C@@H](Cc4ccccc4)C(=O)N[C@@H](CCSC)C(=O)N[C@@H](CCCNC(=N)N)C(=O)N[C@@H](CCCCN)C(=O)N2)NC(=O)[C@H](CSSC[C@@H](C(=O)N[C@@H](CCCCN)C(=O)N[C@@H](Cc2ccc(O)cc2)C(=O)N[C@H](C(=O)N[C@@H](Cc2ccccc2)C(N)=O)C(C)C)NC(=O)[C@H](Cc2c[nH]c4ccccc24)NC(=O)[C@H](CCCCN)NC(=O)[C@H](Cc2c[nH]cn2)NC(=O)[C@H]([C@@H](C)O)NC(=O)[C@H](CCCNC(=N)N)NC(=O)[C@H](CO)NC3=O)NC(=O)[C@H](CCCCN)NC(=O)[C@H](CC(=O)O)NC(=O)[C@H](CC(N)=O)NC(=O)[C@H](CO)NC(=O)[C@@H]2CCCN2C1=O [compound 91] (H-DCLGFMRKCIPSNDKCCRPNLVCSRTHKWCKYVF-NH2; disulfide 2-17, 9-23, 16-30) | – | – | – | – | IC50 (hNav1.7; IonWorks Quattro, Use, read-out: IWQ Use Nav1.7): 80 nM; IC50 (hNav1.5; IonWorks Quattro, Use, read-out: IWQ Use Nav1.5): 9580 nM; IC50 (hNav1.3; Use): 190 nM |
| CC[C@H](C)[C@@H]1NC(=O)[C@@H]2CSSC[C@@H]3NC(=O)[C@H](C(C)C)NC(=O)[C@H](CC(C)C)NC(=O)[C@H](CC(N)=O)NC(=O)[C@@H]4CCCN4C(=O)[C@H](CCCNC(=N)N)NC(=O)[C@H](CSSC[C@H](NC(=O)[C@@H](N)CC(=O)O)C(=O)N[C@@H](CC(C)C)C(=O)NCC(=O)N[C@@H](Cc4ccccc4)C(=O)N[C@@H](CCSC)C(=O)N[C@@H](CCCNC(=N)N)C(=O)N[C@@H](CCCCN)C(=O)N2)NC(=O)[C@H](CSSC[C@@H](C(=O)N[C@@H](CCCCN)C(=O)N2CCC[C@H]2C(=O)N[C@H](C(=O)N[C@@H](Cc2ccccc2)C(N)=O)C(C)C)NC(=O)[C@H](Cc2c[nH]c4ccccc24)NC(=O)[C@H](CCCCN)NC(=O)[C@H](Cc2c[nH]cn2)NC(=O)[C@H]([C@@H](C)O)NC(=O)[C@H](CCCNC(=N)N)NC(=O)[C@H](CO)NC3=O)NC(=O)[C@H](CCCCN)NC(=O)[C@H](CC(=O)O)NC(=O)[C@H](CC(N)=O)NC(=O)[C@H](CC(=O)O)NC(=O)[C@@H]2CCCN2C1=O [compound 383] (H-DCLGFMRKCIPDNDKCCRPNLVCSRTHKWCKPVF-NH2; disulfide 2-17, 9-23, 16-30) | – | – | – | – | IC50 (hNav1.7; Table 25, IonWorks Quattro, use, […], read-out: IWQ Use Nav1.7): > 5000 nM; IC50 (hNav1.5; Table 25, IonWorks Quattro, use, […], read-out: IWQ Use Nav1.5): > 5000 nM; IC50 (hNav1.3; Table 25, use, […]): > 5000 nM |
| CC[C@H](C)[C@@H]1NC(=O)[C@@H]2CSSC[C@@H]3NC(=O)[C@H](C(C)C)NC(=O)[C@H](CC(C)C)NC(=O)[C@H](CC(N)=O)NC(=O)[C@@H]4CCCN4C(=O)[C@H](CCCNC(=N)N)NC(=O)[C@H](CSSC[C@H](NC(=O)[C@@H](N)CC(=O)O)C(=O)N[C@@H](CC(C)C)C(=O)NCC(=O)N[C@@H](C)C(=O)N[C@@H](Cc4ccccc4)C(=O)N[C@@H](CCCNC(=N)N)C(=O)N[C@@H](CCCCN)C(=O)N2)NC(=O)[C@H](CSSC[C@@H](C(=O)N[C@@H](CCCCN)C(=O)N[C@@H](Cc2ccc(O)cc2)C(=O)N[C@H](C(=O)N[C@@H](Cc2ccccc2)C(=O)N[C@@H](Cc2c[nH]c4ccccc24)C(=O)O)C(C)C)NC(=O)[C@H](Cc2c[nH]c4ccccc24)NC(=O)[C@H](CCCNC(=N)N)NC(=O)[C@H](Cc2c[nH]cn2)NC(=O)[C@H]([C@@H](C)O)NC(=O)[C@H](CCCNC(=N)N)NC(=O)[C@H](CO)NC3=O)NC(=O)[C@H](CCCCN)NC(=O)[C@H](CC(=O)O)NC(=O)[C@H](CC(N)=O)NC(=O)[C@H](CC(=O)O)NC(=O)[C@@H]2CCCN2C1=O [compound 813] (H-DCLGAFRKCIPDNDKCCRPNLVCSRTHRWCKYVFW-OH; disulfide 2-17, 9-23, 16-30) | > 5000 nM | > 5000 nM | > 5000 nM | – | – |
| CC[C@H](C)[C@@H]1NC(=O)[C@@H]2CSSC[C@@H]3NC(=O)[C@H](C(C)C)NC(=O)[C@H](CC(C)C)NC(=O)[C@H](CC(N)=O)NC(=O)[C@@H]4CCCN4C(=O)[C@H](CCCNC(=N)N)NC(=O)[C@H](CSSC[C@H](NC(=O)[C@@H](N)CC(=O)O)C(=O)N[C@@H](CC(C)C)C(=O)NCC(=O)N[C@@H](Cc4cccnc4)C(=O)N[C@@H](CC(C)C)C(=O)N[C@@H](CCCNC(=N)N)C(=O)N[C@@H](CCCCN)C(=O)N2)NC(=O)[C@H](CSSC[C@@H](C(=O)N[C@@H](CCCCN)C(=O)N[C@@H](Cc2ccc(O)cc2)C(=O)N[C@H](C(=O)N[C@@H](Cc2ccccc2)C(N)=O)C(C)C)NC(=O)[C@H](Cc2c[nH]c4ccccc24)NC(=O)[C@H](CCCCN)NC(=O)[C@H](Cc2c[nH]cn2)NC(=O)[C@H]([C@@H](C)O)NC(=O)[C@H](CCCNC(=N)N)NC(=O)[C@H](CO)NC3=O)NC(=O)[C@H](CCCCN)NC(=O)[C@H](CC(=O)O)NC(=O)[C@H](CC(N)=O)NC(=O)[C@H](CC(=O)O)NC(=O)[C@@H]2CCCN2C1=O [compound 642] | – | – | – | 3900 nM | IC50 (hNav1.7; [3]): 1700 nM; IC50 (hNav1.5; [4]): > 5000 nM |
| CC[C@H](C)[C@@H]1NC(=O)[C@@H]2CSSC[C@@H]3NC(=O)[C@H](C(C)C)NC(=O)[C@H](CC(C)C)NC(=O)[C@H](CC(N)=O)NC(=O)[C@@H]4CCCN4C(=O)[C@H](CCCNC(=N)N)NC(=O)[C@H](CSSC[C@H](NC(=O)[C@@H](N)CC(=O)O)C(=O)N[C@@H](CC(C)C)C(=O)NCC(=O)N(C)[C@@H](CC(C)C)C(=O)N[C@@H](CCSC)C(=O)N[C@@H](CCCNC(=N)N)C(=O)N[C@@H](CCCCN)C(=O)N2)NC(=O)[C@H](CSSC[C@@H](C(=O)N[C@@H](CCCCN)C(=O)N[C@@H](Cc2ccc(O)cc2)C(=O)N[C@H](C(=O)N[C@@H](Cc2ccccc2)C(N)=O)C(C)C)NC(=O)[C@H](Cc2c[nH]c4ccccc24)NC(=O)[C@H](CCCCN)NC(=O)[C@H](Cc2cnc[nH]2)NC(=O)[C@H]([C@@H](C)O)NC(=O)[C@H](CCCNC(=N)N)NC(=O)[C@H](CO)NC3=O)NC(=O)[C@H](CCCCN)NC(=O)[C@H](CC(=O)O)NC(=O)[C@H](CC(N)=O)NC(=O)[C@H](CC(=O)O)NC(=O)[C@@H]2CCCN2C1=O [compound 688] | – | – | – | 730 nM | IC50 (hNav1.7): 290 nM; IC50 (hNav1.5; IWQ Use Nav1.5): > 5000 nM |
| CC[C@H](C)[C@@H]1NC(=O)[C@@H]2CSSC[C@@H]3NC(=O)[C@H](C(C)C)NC(=O)[C@H](CC(C)C)NC(=O)[C@H](CC(N)=O)NC(=O)[C@@H]4CCCN4C(=O)[C@H](CCCNC(=N)N)NC(=O)[C@H](CSSC[C@H](NC(=O)[C@@H](N)CC(=O)O)C(=O)N[C@@H](CC(C)C)C(=O)NCC(=O)N[C@@H](C4CCCC4)C(=O)N[C@@H](CC(C)C)C(=O)N[C@@H](CCCNC(=N)N)C(=O)N[C@@H](CCCCN)C(=O)N2)NC(=O)[C@H](CSSC[C@@H](C(=O)N[C@@H](CCCCN)C(=O)N[C@@H](Cc2ccc(O)cc2)C(=O)N[C@H](C(=O)N[C@@H](Cc2ccccc2)C(N)=O)C(C)C)NC(=O)[C@H](Cc2c[nH]c4ccccc24)NC(=O)[C@H](CCCCN)NC(=O)[C@H](Cc2c[nH]cn2)NC(=O)[C@H]([C@@H](C)O)NC(=O)[C@H](CCCNC(=N)N)NC(=O)[C@H](CO)NC3=O)NC(=O)[C@H](CCCCN)NC(=O)[C@H](CC(=O)O)NC(=O)[C@H](CC(N)=O)NC(=O)[C@H](CC(=O)O)NC(=O)[C@@H]2CCCN2C1=O [compound 663] | – | – | – | 240 nM | IC50 (hNav1.7; [3]): 59 nM; IC50 (hNav1.5; [4]): > 5000 nM |
| CC[C@H](C)[C@@H]1NC(=O)[C@@H]2CSSC[C@@H]3NC(=O)[C@H](C(C)C)NC(=O)[C@H](CC(C)C)NC(=O)[C@H](CC(N)=O)NC(=O)[C@@H]4CCCN4C(=O)[C@H](CCCNC(=N)N)NC(=O)[C@H](CSSC[C@H](NC(=O)[C@@H](N)CC(=O)O)C(=O)N[C@@H](CC(C)C)C(=O)NCC(=O)N[C@@H](C)C(=O)N[C@@H](CC(C)C)C(=O)N[C@@H](CCCNC(=N)N)C(=O)N[C@@H](CCCCN)C(=O)N2)NC(=O)[C@H](CSSC[C@@H](C(=O)N[C@@H](CCCCN)C(=O)N[C@@H](Cc2ccc(O)cc2)C(=O)N[C@H](C(=O)N[C@@H](Cc2ccccc2)C(=O)O)C(C)C)NC(=O)[C@H](Cc2c[nH]c4ccccc24)NC(=O)[C@H](CO)NC(=O)[C@H](Cc2c[nH]cn2)NC(=O)[C@H]([C@@H](C)O)NC(=O)[C@H](CCCNC(=N)N)NC(=O)[C@H](CO)NC3=O)NC(=O)[C@H](CCCCN)NC(=O)[C@H](CC(=O)O)NC(=O)[C@H](CC(N)=O)NC(=O)[C@H](CC(=O)O)NC(=O)[C@@H]2CCCN2C1=O [compound 859] (H-DCLGALRKCIPDNDKCCRPNLVCSRTHSWCKYVF-OH; disulfide 2-17, 9-23, 16-30) | > 5000 nM | > 5000 nM | > 5000 nM | – | – |
